Broadly, the Kd is the free concentration of one partner at which half of the binding sites on the other are occupied at equilibrium, for simple one-to-one binding. Low values mean a tighter complex, high ones a looser complex.

Our source for the Kd values is publication PMC13309125, “Differential regulation of hepatic macrophage fate by Chi3l1 in metabolic dysfunction-associated steatotic liver disease” (eLife, 2026).

The experiment has as its target T1, Chi3l1 (chitinase 3-like 1, YKL-40) (Mus musculus, UniProt Q61362).
T1 construct: recombinant mouse Chi3l1 (rChi3l1), labelled with His-Tag Labeling Kit RED-tris-NTA
The experiment in a line: microscale thermophoresis (MST); supported by biotin-glucose pull-down competed by unlabeled glucose. The class given is binding. (MST reads how a fluorescent partner responds to local heating, with and without ligand.)

T1 sequence (Q61362 30-389): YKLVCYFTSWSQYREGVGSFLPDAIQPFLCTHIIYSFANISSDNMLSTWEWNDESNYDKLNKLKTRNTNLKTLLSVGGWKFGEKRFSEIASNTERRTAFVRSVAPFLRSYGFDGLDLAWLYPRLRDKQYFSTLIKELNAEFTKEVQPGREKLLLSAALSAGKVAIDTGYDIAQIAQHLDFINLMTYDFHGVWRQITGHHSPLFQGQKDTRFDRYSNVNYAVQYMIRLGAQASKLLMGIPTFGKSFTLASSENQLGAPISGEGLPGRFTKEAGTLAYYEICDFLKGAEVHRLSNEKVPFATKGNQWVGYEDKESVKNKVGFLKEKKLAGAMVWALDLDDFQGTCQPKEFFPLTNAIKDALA

As to `OC[C@H]1OC(O)[C@H](O)[C@@H](O)[C@@H]1O` (stereo partly shown) [glucose], the Kd worked out at 4.95 mM.
